Test results as given in patent US8076356B2, “Triazolopyridinylsulfanyl derivatives as P38 map kinase inhibitors” (Pfizer Inc., priority 2004, dated 2011).

system: TNFα release from human peripheral blood mononuclear cells; assay: TNFα screen; format: cell-based; conditions: LPS-stimulated human peripheral blood mononuclear cells, 18 hours incubation, TNFα in supernatant by ELISA; read-out: TNF IC50
Experimental: Venous blood is collected from healthy volunteers and the mononuclear cells purified by centrifugation through Histopaque (Ficoll) cushions. TNFα production from these cells is stimulated by addition of lipopolysaccharide. After 18 hours incubation in the presence of LPS, the cell supernatant is removed and the concentration of TNFα in the supernatant determined by ELISA.

Compound	IC50 [nM]
CSC(C)(C)c1cc(NC(=O)NCc2ccccc2Sc2ccc3nnc(-c4cccc(Cl)c4O)n3c2)n(-c2ccc(C)cc2)n1 [Example 153]	4.8
CC(C)(C)c1cc(NC(=O)NCc2ccccc2Sc2ccc3nnc(-c4cccc(O)c4Cl)n3c2)n(-c2ccc(F)c(F)c2)n1 [Example 128]	3.7
CSC(C)(C)c1cc(NC(=O)NCc2ccccc2Sc2ccc3nnc(C(C)C)n3c2)n(-c2cc(C)cc(C)c2)n1 [Example 136]	1
CCc1ccccc1-c1nnc2ccc(Sc3ccccc3CNC(=O)Nc3cc(C(C)(C)SC)nn3-c3ccc(O)cc3)cn12 [Example 132]	4.5
CC(C)(C)c1cc(NC(=O)NCc2ccccc2Sc2ccc3nnc(-c4ccccc4SCCO)n3c2)n(-c2cccc(O)c2)n1 [Example 179]	1.5
CSC(C)(C)c1cc(NC(=O)NCc2ccccc2Sc2ccc3nnc(C(C)C)n3c2)n(-c2ccc(OCCO)cc2)n1 [Example 125]	80
CC(C)(C)c1cc(NC(=O)NCc2ccccc2Sc2ccc3nnc(-c4ccccc4O)n3c2)n(-c2cccc(O)c2)n1 [Example 55]	0.9
CC(C)(C)c1cc(NC(=O)NCc2ccccc2Sc2ccc3nnc(-c4cc(O)ccc4Cl)n3c2)n(-c2ccc(F)c(F)c2)n1 [Example 78]	0.8

same assay, conditions: PBMC; LPS-stimulated human peripheral blood mononuclear cells, 18 hours incubation, TNFα in supernatant by ELISA; read-out: TNF IC50

Compound	IC50 [nM]
CC(C)(C)c1cc(NC(=O)NCc2ccccc2Sc2ccc3nnc(-c4ccccc4O)n3c2)n(-c2ccccn2)n1 [Example 71, N-(3-tert-Butyl-1-pyridin-2-yl-1H-pyrazol-5-yl)-N′-(2-{[3-(2-hydroxyphenyl)[1,2,4]triazolo[4,3-a]pyridin-6-yl]thio}benzyl)urea]	3
COc1ccccc1-c1nnc2ccc(Sc3ccccc3CNC(=O)Nc3cc(C(C)(C)C)nn3-c3cccc(OCCO)c3)cn12 [Example 45, N-{3-tert-Butyl-1-[3-(2-hydroxyethoxy)phenyl]-1H-pyrazol-5-yl}-N′-(2-{[3-(2-methoxyphenyl)[1,2,4]triazolo[4,3-a]pyridin-6-yl]thio}benzyl)urea]	1.4
CSC(C)(C)c1cc(NC(=O)NCc2ccccc2Sc2ccc3nnc(-c4ccccc4O)n3c2)n(-c2ccc(F)c(F)c2)n1 [Example 95, N-{1-(3,4-Difluorophenyl)-3-[1-methyl-1-(methylthio)ethyl]-1H-pyrazol-5-yl}-N′-(2-{[3-(2-hydroxyphenyl)[1,2,4]triazolo[4,3-a]pyridin-6-yl]thio}benzyl)urea]	0.6
CSc1ccccc1-c1nnc2ccc(Sc3ccccc3CNC(=O)Nc3cc(C(C)(C)C)nn3-c3cccc(O)c3)cn12 [Example 93, N-[3-tert-Butyl-1-(3-hydroxyphenyl)-1H-pyrazol-5-yl]-N′-[2-({3-[2-(methylthio)phenyl][1,2,4]triazolo[4,3-a]pyridin-6-yl}thio)benzyl]urea]	1.1
CC(C)(C)c1cc(NC(=O)NCc2ccccc2Sc2ccc3nnc(-c4ccccc4O)n3c2)n(-c2cccc(OCCO)c2)n1 [Example 80, N-{3-tert-Butyl-1-[3-(2-hydroxyethoxy)phenyl]-1H-pyrazol-5-yl}-N′-(2-{[3-(2-hydroxyphenyl)[1,2,4]triazolo[4,3-a]pyridin-6-yl]thio}benzyl)urea]	1.1
CCc1ccccc1-c1nnc2ccc(Sc3ccccc3CNC(=O)Nc3cc(C(C)(C)C)nn3-c3cccc(OCCO)c3)cn12 [Example 104, N-{3-tert-Butyl-1-[3-(2-hydroxyethoxy)phenyl]-1H-pyrazol-5-yl}-N′-(2-{[3-(2-ethylphenyl)[1,2,4]triazolo[4,3-a]pyridin-6-yl]thio}benzyl)urea]	1
CSC(C)(C)c1cc(NC(=O)NCc2ccccc2Sc2ccc3nnc(C(C)C)n3c2)n(-c2cccc(OCCO)c2)n1 [Example 37]	2.8
CCC(C)(C)c1cc(NC(=O)NCc2ccccc2Sc2ccc3nnc(-c4ccccc4O)n3c2)n(-c2cccc(OCCO)c2)n1 [Example 100]	1.1
CSC(C)(C)c1cc(NC(=O)NCc2ccccc2Sc2ccc3nnc(C(C)C)n3c2)n(-c2cccc(O)c2)n1 [Example 26, N-{1-(3-Hydroxyphenyl)-3-[1-methyl-1-(methylthio)ethyl]-1H-pyrazol-5-yl}-N′-{2-[(3-isopropyl[1,2,4]triazolo[4,3-a]pyridin-6-yl)thio]benzyl}urea]	1.6
